# From patent US4042711A, “Derivatives of biphenyloxy-lower alkanoic acids, salts thereof and their use as antihyperlipidemics” (Boehringer Ingelheim GmbH, priority 1975, dated 1977)
# Legend:
# [1] = system: Cholesterol level in the serum; assay: Lipid level lowering activity: serum cholesterol depression in normolipemic rats; assay type: in vivo, male normolipemic rats; conditions: Rattus norvegicus, oral, by regression analysis; for ED15: dose leading to 15% depression of serum cholesterol; for ED20: dose leading to 20% depression of serum cholesterol
# Description: (§1) The above pharmacologicaly activity of the compounds of this invention, as well as their acute toxicities, were ascertained along with those of the three antihyperlipidemic compounds of the prior art by the standard test methods described below.
# The test compound was administered twice by an esophageal tube at 20 hours' interval to male normolipemic rats having a body weight of 250-300 gm. When the test began, the animals were deprived of food, but water was freely accessible to them. 28 and 44 hours later the serum cholesterol and triglyceride-levels were determined. The measurement of cholesterol and triglycerides was effected simultaneously, using an autoanalyzer; the percentage depression was calculated, compared with a control group treated with placebo.
# The cholesterol-lowering activity of the test compound was observed after oral administration of one dose and after oral administration of various doses.
# Acute toxicity, oral = assay type: in vivo; conditions: mouse, in vivo, white mice, observation time 14 days
# Description: as §1
# (§2) The acute toxicity was determined on groups of 5 or 6 white mice each, after oral administration of the test compound at dosage levels of 2.5 gm/kg, 5 gm/kg and 10 gm/kg (observation time 14 days).
# white mice = assay: Acute toxicity, oral; assay type: in vivo; conditions: 14 days, at the dose given as LD50
# Description: as §1, §2
# [2] = as disclosed in prior-art patents; cited from earlier work
# [3] = see Therapie 27, 385 (1972); cited from earlier work
# [4] = 28 hours after beginning of the test
# [5] = 44 hours after beginning of the test
compound,measurement,setting,value
"COC(=O)C(C)(C)Oc1ccc(-c2ccc(Cl)cc2)cc1 [D, methyl 2-[4-(4-chlorophenyl)-phenoxy]-2-methyl-propionate]",ED15,[1]; [4],6.9 mg/kg
same,ED20,[1]; [4],11 mg/kg
same,ED15,[1]; [5],4.4 mg/kg
same,ED20,[1]; [5],5.6 mg/kg
same,LD50 at 336 h,"Acute toxicity, oral",5000 mg/kg
same,animals died,white mice,3 out of 5
same,antihypercholesteremic / antihyperlipidemic properties,[2],has antihyperlipidemic properties
"CCOC(=O)C(C)(C)Oc1ccc(CCNC(=O)c2cc(Cl)ccc2OC)cc1 [E, ethyl 2-methyl-2-{4-[2-(2-methoxy-5-chloro-benzamido)-ethyl]-phenoxy}-propionate]",ED15,[1]; [4],3.6 mg/kg
same,ED20,[1]; [4],5 mg/kg
same,ED15,[1]; [5],3.6 mg/kg
same,ED20,[1]; [5],5 mg/kg
same,LD50 at 336 h,"Acute toxicity, oral",2500 mg/kg
same,animals died,white mice,3 out of 6
same,antihypercholesteremic / antihyperlipidemic properties,[2],exhibits similar properties
"CCOC(=O)C(C)(C)Oc1ccc(Cl)cc1 [C, ethyl 2-(4-chlorophenoxy)-2-methyl propionate]",ED15,[1]; [4],15 mg/kg
same,ED20,[1]; [4],22 mg/kg
same,ED15,[1]; [5],25 mg/kg
same,ED20,[1]; [5],32 mg/kg
same,antihypercholesteremic / antihyperlipidemic properties,[2],has antihypercholesteremic properties
same,Toxicity (LD50),[3],1.7 gm/kg
"COc1ccc(Cl)cc1C(=O)NCCc1ccc(-c2ccc(OC(C)(C)C(=O)O)cc2)cc1 [A, 2-methyl-2-{4-[2-(2-methoxy-5-chloro-benzamido)-ethyl]-biphenyl-4'-oxy}-propionic acid]",ED20,[1]; [4],16 mg/kg
same,ED20,[1]; [5],4.41 mg/kg
same,LD50 at 336 h,"Acute toxicity, oral",> 10000 mg/kg
same,animals died,white mice,0 out of 5
"COc1ccccc1C(=O)NCCc1ccc(-c2ccc(OC(C)(C)C(=O)O)cc2)cc1 [B, 2-methyl-2-{4-[2-(2-methoxy-benzamido)-ethyl]-biphenyl-4'-oxy}-propionic a cid]",ED20,[1]; [4],3.1 mg/kg
same,ED20,[1]; [5],0.59 mg/kg
same,LD50 at 336 h,"Acute toxicity, oral",> 2500 mg/kg
same,animals died,white mice,1 out of 5
